The record followed here is patent US6399542B1, “Alkoxyimino-substituted bicyclic compounds compositions containing the same and method of making such compounds” (Agro-Kanesho Co., Ltd., priority 1997, dated 2002).

Read-outs that look alike come from different tables or passages of the source.

Common to all, as to assay type: in vivo
For assay [1], the system named is Puccinia recondita. The experiment in a line: Effect on Wheat brown rust (preventive spray test). To be noted: 7 days after inoculation.
The test system of assay [2] is Psecidoperonospora cubensis. The assay can be described thus: Effect on Cucumber downy mildew (preventive spray test). To be noted: 7 days after inoculation.
The subject of assay [3] is Erysiphe graminis. The assay can be described thus: Effects on Barley powdery mildew (preventive spray test). The following applies: lesions counted seven days after inoculation.
Assay [4] relates to Phytophthora infestans. To be noted: Tomato late blight, 5 days after inoculation.
Where [5] appears, read: conc. of active ingredient 20 ppm.
The mark [6] stands for this setting: conc. of active ingredient 100 ppm.
The mark [7] stands for this setting: conc. of active ingredient 4 ppm.

Consider `CNC(=O)C(OC)c1ccccc1COc1ccc2c(c1)OCCC2=NOC` (racemic) [c-11], for which the “Preventive rate (%)” value in assay [1] (setting [5]) came out at 93%; in assay [1] (setting [6]), 99%.

For `CCc1cc2c(cc1OCc1ccccc1/C(=N\OC)C(=O)OC)OCC2=NOC` (single isomer, unassigned) [a-29], the “Preventive rate (%)” value in assay [2] (setting [5]) and in assay [2] (setting [6]) was 97% throughout.

`CCc1cc2c(cc1OCc1ccccc1/C(=N\OC)C(=O)NC)OCC2=NOC` (single isomer, unassigned) [a-31]: the results for the “Preventive rate (%)” value in assay [3] (setting [5]) and in assay [3] (setting [6]) were 99% and 100%, respectively.

On to `CON=C(C(=O)OC)c1ccccc1COc1cc2c(cc1C)C(=NOC)C(C)C2` (single isomer, unassigned) [f-9], for which the “Preventive rate (%)” value in assay [4] (setting [5]) stood at 93%; in assay [4] (setting [6]) it was 98%; in assay [2] (setting [7]) it was 100%; in assay [2] (setting [5]), 100%; in assay [2] (setting [6]) it was 100%.

For the compound `CCc1cc2c(cc1OCc1ccccc1/C(=N\OC)C(=O)NC)OCC2=NOC` [a-32], the “Preventive rate (%)” value is recorded as 98% in assay [4] (setting [5]), 91% in assay [4] (setting [6]), 81% in assay [2] (setting [5]) and 97% in assay [2] (setting [6]).

Regarding `CO/N=C(/C(=O)OC)c1ccccc1COc1ccc2c(c1C)OCC2=NOCC#N` [a-48], the “Preventive rate (%)” value came out at 100% in assay [1] (setting [7]); 100% in assay [1] (setting [5]); 100% in assay [1] (setting [6]); 81% in assay [4] (setting [5]); 94% in assay [4] (setting [6]); 100% in assay [2] (setting [5]). In addition, the “Preventive rate (%)” value in assay [2] (setting [6]) was 100%.

For `CNC(=O)/C(=N/OC)c1ccccc1COc1ccc2c(c1C)OCC2=NOCC#N` [a-49], the “Preventive rate (%)” value in assay [1] (setting [7]) was 100%; in assay [1] (setting [5]), 100%; in assay [1] (setting [6]) it was 100%; in assay [4] (setting [5]), 97%; in assay [4] (setting [6]) it was 97%; in assay [2] (setting [7]), 88%. Also, the “Preventive rate (%)” value in assay [2] (setting [5]) and in assay [2] (setting [6]) was 100% in each case.

Take `CNC(=O)/C(=N/OC)c1ccccc1COc1ccc2c(c1C)OCC2=NOCC(=O)OC` [a-54]: the “Preventive rate (%)” value in assay [1] (setting [7]), in assay [1] (setting [5]) and in assay [1] (setting [6]) was 100% in each case.

`C/C=C/CON=C1COc2c1ccc(OCc1ccccc1/C(=N\OC)C(=O)NC)c2C` [a-65]: the “Preventive rate (%)” value is recorded as 100% in assay [1] (setting [5]); 100% in assay [1] (setting [6]); 97% in assay [4] (setting [5]); 100% in assay [4] (setting [6]); 94% in assay [2] (setting [5]); 100% in assay [2] (setting [6]).

On to `CO/N=C(/C(=O)OC)c1ccccc1COc1ccc2c(c1C)OCC2=NOCC=C(C)C` [a-66], for which the “Preventive rate (%)” value in assay [1] (setting [7]), in assay [1] (setting [5]) and in assay [1] (setting [6]) was 100% in each case.

With `CNC(=O)/C(=N/OC)c1ccccc1COc1ccc2c(c1C)OCC2=NOCC=C(C)C` [a-67], the “Preventive rate (%)” value worked out at 100% in assay [1] (setting [7]); 100% in assay [1] (setting [5]); 100% in assay [1] (setting [6]); 88% in assay [4] (setting [5]); 100% in assay [4] (setting [6]); 100% in assay [2] (setting [5]). Moreover, the “Preventive rate (%)” value in assay [2] (setting [6]) is 100%.

Consider `CO/N=C(/C(=O)OC)c1ccccc1COc1ccc2c(c1C)OCC2=NOCc1ccccc1` [a-72], for which the “Preventive rate (%)” value in assay [1] (setting [5]) and in assay [1] (setting [6]) was 100% each time.

Regarding `CNC(=O)/C(=N/OC)c1ccccc1COc1ccc2c(c1C)OCC2=NOCc1ccccc1` [a-73], the “Preventive rate (%)” value in assay [3] (setting [7]) is 98%; in assay [3] (setting [5]), 100%; in assay [3] (setting [6]), 100%; in assay [1] (setting [7]) it was 100%; in assay [1] (setting [5]), 100%; in assay [1] (setting [6]), 100%. The “Preventive rate (%)” value in assay [2] (setting [5]) and in assay [2] (setting [6]) was 88% each time.

Regarding `CO/N=C(/C(=O)OC)c1ccccc1COc1ccc2c(c1C)OCC2=NOCc1ccc(Cl)c(Cl)c1` [a-78], the “Preventive rate (%)” value in assay [1] (setting [7]) worked out at 95%; in assay [1] (setting [5]), 100%; in assay [1] (setting [6]) it was 100%.

Turning to `CNC(=O)/C(=N/OC)c1ccccc1COc1ccc2c(c1C)OCC2=NOCc1ccc(Cl)c(Cl)c1` [a-79], the “Preventive rate (%)” value was 98% in assay [1] (setting [7]), 98% in assay [1] (setting [5]) and 100% in assay [1] (setting [6]).

On to `CON=C1CCOc2cc(OCc3ccccc3N(OC)C(=O)OC)ccc21` [c-7], for which the “Preventive rate (%)” value is listed as 99% in assay [1] (setting [5]), 100% in assay [1] (setting [6]), 94% in assay [2] (setting [5]) and 100% in assay [2] (setting [6]).

Consider `CON=C(C(=O)OC)c1ccccc1COc1cc2c(cc1C)C(=NOC)CCO2` [c-26], for which the “Preventive rate (%)” value in assay [1] (setting [5]) amounted to 98%; in assay [1] (setting [6]), 99%; in assay [2] (setting [5]), 100%; in assay [2] (setting [6]), 100%.

Regarding `CCc1c(OCc2ccccc2C(=NOC)C(=O)OC)ccc2c1OCCC2=NOC` [c-29], the “Preventive rate (%)” value in assay [3] (setting [5]) came out at 95%; in assay [3] (setting [6]), 99%; in assay [1] (setting [7]), 96%; in assay [1] (setting [5]), 100%; in assay [1] (setting [6]), 100%.

Take `CCCCON=C1CCOc2c1ccc(OCc1ccccc1C(=NOC)C(=O)NC)c2C` [c-43]: the “Preventive rate (%)” value in assay [1] (setting [5]) was determined as 93%.

For `CON=C(C(=O)OC)c1ccccc1COc1ccc2c(c1C)OCCC2=NOCC#N` [c-48], the “Preventive rate (%)” value in assay [1] (setting [7]), in assay [1] (setting [5]) and in assay [1] (setting [6]) was 100% each time.

As for `CNC(=O)C(=NOC)c1ccccc1COc1ccc2c(c1C)OCCC2=NOCC#N` [c-49], the “Preventive rate (%)” value in assay [1] (setting [7]) is given as 91%; in assay [1] (setting [5]), 93%; in assay [1] (setting [6]), 94%.

Consider `CON=C(C(=O)OC)c1ccccc1COc1ccc2c(c1C)OCCC2=NOC(C)(C)C` [c-52], for which the “Preventive rate (%)” value in assay [1] (setting [5]) is listed as 93%; in assay [1] (setting [6]), 100%.

As for `CCCCON=C1CCOc2c1ccc(OCc1ccccc1C(=NOC)C(=O)NC)c2C` [c-58], the “Preventive rate (%)” value in assay [3] (setting [5]) is recorded as 98%; in assay [3] (setting [6]) it was 100%; in assay [1] (setting [7]), 98%; in assay [1] (setting [5]), 100%; in assay [1] (setting [6]), 100%; in assay [4] (setting [6]) it was 100%.

Consider `CON=C(C(=O)OC)c1ccccc1COc1ccc2c(c1C)OCCC2=NOCC=CCl` [c-61], for which the “Preventive rate (%)” value in assay [1] (setting [7]) was found to be 99%; in assay [1] (setting [5]) it was 100%; in assay [1] (setting [6]) it was 100%.

As for `CON=C(C(=O)OC)c1ccccc1COc1ccc2c(c1)OCCC2=NOCC=CCl` [c-63], the “Preventive rate (%)” value in assay [1] (setting [5]) turned out to be 99%; in assay [1] (setting [6]) it was 100%.

In the case of `CNC(=O)C(=NOC)c1ccccc1COc1ccc2c(c1C)OCCC2=NOCC=C(C)C` [c-67], the “Preventive rate (%)” value in assay [3] (setting [5]), in assay [3] (setting [6]), in assay [1] (setting [7]), in assay [1] (setting [5]) and in assay [1] (setting [6]) was 100% throughout.

In the case of `CON=C(C(=O)OC)c1ccccc1COc1ccc2c(c1C)OCCC2=NOCc1ccc(Cl)c(Cl)c1` [c-78], the entries for the “Preventive rate (%)” value in assay [1] (setting [5]) and in assay [1] (setting [6]) were 96% and 100%, respectively.

Turning to `CNC(=O)C(=NOC)c1ccccc1COc1ccc2c(c1C)OCCC2=NOCc1ccc(Cl)c(Cl)c1` [c-79], the “Preventive rate (%)” value in assay [3] (setting [5]) came out at 100%; in assay [3] (setting [6]) it was 100%; in assay [1] (setting [7]) it was 97%; in assay [1] (setting [5]), 100%; in assay [1] (setting [6]), 100%.

On to `CON=C(C(=O)OC)c1ccccc1COc1ccc2c(c1C)OCCC2=NOCc1cccc(F)c1` [c-80], for which the “Preventive rate (%)” value was 98% in assay [1] (setting [5]) and 100% in assay [1] (setting [6]).

Consider `CNC(=O)C(=NOC)c1ccccc1COc1ccc2c(c1C)OCCC2=NOCc1cccc(F)c1` [c-81], for which the “Preventive rate (%)” value in assay [3] (setting [5]) came to 98%; in assay [3] (setting [6]), 98%; in assay [1] (setting [7]), 98%; in assay [1] (setting [5]), 99%; in assay [1] (setting [6]), 100%.

Regarding `CON=C(C(=O)OC)c1ccccc1COc1ccc2c(c1C)OCCC2=NOCc1c(F)c(F)c(F)c(F)c1F` [c-82], the “Preventive rate (%)” value in assay [3] (setting [5]) came to 86%; in assay [3] (setting [6]), 100%; in assay [1] (setting [5]), 96%; in assay [1] (setting [6]), 100%.

In the case of `CNC(=O)C(=NOC)c1ccccc1COc1ccc2c(c1C)OCCC2=NOCc1cccc2ccccc12` [c-89], the “Preventive rate (%)” value in assay [3] (setting [5]) was 92%; in assay [3] (setting [6]), 98%; in assay [1] (setting [7]) it was 96%; in assay [1] (setting [5]) it was 100%; in assay [1] (setting [6]), 100%.

Consider `CON=C1CCc2cc(OCc3ccccc3C(=NOC)C(=O)OC)ccc21` [e-4], for which the “Preventive rate (%)” value in assay [1] (setting [5]) came to 98%.

For `CON=C(C(=O)OC)c1ccccc1COc1ccc2c(c1C)CCC2=NOC` [e-15], the “Preventive rate (%)” value in assay [1] (setting [5]) is recorded as 98%; in assay [1] (setting [6]) it was 99%; in assay [2] (setting [5]) it was 95%; in assay [2] (setting [6]) it was 100%.

For `CON=C(C(=O)OC)c1ccccc1COc1ccc2c(c1C)CCC2=NOCC=CCl` [e-57], the “Preventive rate (%)” value in assay [2] (setting [5]) came out at 94%; in assay [2] (setting [6]), 100%.

Consider `C#CCON=C1CCc2c1ccc(OCc1ccccc1C(=NOC)C(=O)OC)c2C` [e-60], for which the “Preventive rate (%)” value in assay [2] (setting [5]) was found to be 88%; in assay [2] (setting [6]), 100%.
